pIC50: −log10 of the molar value.
Target: T1, Human TRPC6 (Homo sapiens, UniProt Q9Y210)
T1 construct: expressed in transfected cells
T1 sequence (Q9Y210 1-931): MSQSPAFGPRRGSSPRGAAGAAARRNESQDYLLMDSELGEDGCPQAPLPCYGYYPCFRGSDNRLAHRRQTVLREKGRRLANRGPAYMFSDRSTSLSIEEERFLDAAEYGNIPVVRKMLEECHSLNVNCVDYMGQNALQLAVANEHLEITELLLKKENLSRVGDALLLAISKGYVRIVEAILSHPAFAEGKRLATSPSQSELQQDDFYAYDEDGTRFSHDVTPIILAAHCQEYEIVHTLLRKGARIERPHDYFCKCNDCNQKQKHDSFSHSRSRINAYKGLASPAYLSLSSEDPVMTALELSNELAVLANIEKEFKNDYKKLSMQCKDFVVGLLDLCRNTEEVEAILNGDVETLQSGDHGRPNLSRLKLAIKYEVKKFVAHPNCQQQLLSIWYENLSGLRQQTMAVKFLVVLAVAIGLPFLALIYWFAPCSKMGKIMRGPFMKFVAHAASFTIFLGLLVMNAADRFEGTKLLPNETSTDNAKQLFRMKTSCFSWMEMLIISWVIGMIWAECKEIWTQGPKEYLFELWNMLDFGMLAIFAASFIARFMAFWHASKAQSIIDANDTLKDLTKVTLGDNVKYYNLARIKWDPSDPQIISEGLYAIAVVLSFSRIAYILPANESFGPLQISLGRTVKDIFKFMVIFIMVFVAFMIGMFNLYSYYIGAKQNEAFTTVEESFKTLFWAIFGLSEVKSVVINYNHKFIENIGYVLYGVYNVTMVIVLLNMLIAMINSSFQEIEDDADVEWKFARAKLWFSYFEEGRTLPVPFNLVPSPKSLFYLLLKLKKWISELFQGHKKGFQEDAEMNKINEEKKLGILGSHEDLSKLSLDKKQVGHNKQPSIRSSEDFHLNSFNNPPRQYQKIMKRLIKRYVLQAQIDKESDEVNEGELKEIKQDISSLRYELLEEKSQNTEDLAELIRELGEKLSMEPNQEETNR
Assay: Evaluation of TRPC6 channel inhibitory activity (1), FLIPR Calcium 5 Assay Kit, OAG stimulation (Compound Nos. 1-1293)
Assay type: cell-based
Settings: not given
Summary of the method: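 Cells stably expressing human TRPC6, plated 24 h before, were loaded 30 min with Calcium 5 dye plus probenecid in HEPES-HBSS. Compound was added 20 min before OAG (30 μM final) and fluorescence tracked on FLIPR. Inhibition normalised to no-compound and no-compound/no-OAG wells; pIC50 from four-parameter fit, reported as +/++/+++ categories.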

SMILES | pIC50
Cc1nc(Oc2cc(C#N)ccc2-c2ccc(CC3(N)COC3)cn2)cc(N2C3CCC2CC3)n1 [Compound No. 670, 4-[5-[(3-Aminooxetan-3-yl)methyl]pyridin-2-yl]-3-[6-(7-azabicyclo[2.2.1]heptan-7-yl)-2-methylpyrimidin-4-yl]oxybenzonitrile] | > 8.00

Same assay, conditions: Human TRPC6 stably-expressing cells, OAG 30 μM, FLIPR Calcium 5 Assay Kit; read-out: Inhibitory activity (pIC50 class) (converted)

SMILES | IC50
Cn1nc(C2CCC2)cc1Oc1cc(C#N)ccc1-c1ccc(C(F)(F)CN)cn1 [Compound 294, 4-[5-(2-amino-1,1-difluoroethyl)pyridin-2-yl]-3-(5-cyclobutyl-2-methylpyrazol-3-yl)oxybenzonitrile] | < 10 nM
Cc1nc(Oc2cc(C#N)ccc2-c2ncc(CCN)cn2)cc(-c2ccccc2C#N)n1 [Compound 295, 4-[5-(2-aminoethyl)pyrimidin-2-yl]-3-[6-(2-cyanophenyl)-2-methylpyrimidin-4-yl]oxybenzonitrile] | < 10 nM
Cn1nc(C2CC2)cc1Oc1cc(C#N)ccc1-c1ccc(C(N)C(=O)N2CCOCC2)cn1 (stereo not shown) [Compound No. 487, 4-[5-(1-Amino-2-morpholin-4-yl-2-oxoethyl)pyridin-2-yl]-3-(5-cyclopropyl-2-methylpyrazol-3-yl)oxybenzonitrile] | > 1000 nM
N#Cc1ccc(-c2ccc(CCN)cn2)c(Oc2nnc(C(F)(F)F)s2)c1 [Compound No. 712, 4-[5-(2-Aminoethyl)pyridin-2-yl]-3-[[5-(trifluoromethyl)-1,3,4-thiadiazol-2-yl]oxy]benzonitrile] | 10 to 1000 nM
Cn1nc(C(F)(F)F)cc1Oc1cc(C#N)ccc1-c1ncc(CN)cn1 [Compound No. 811, 4-[5-(Aminomethyl)pyrimidin-2-yl]-3-[2-methyl-5-(trifluoromethyl)pyrazol-3-yl]oxybenzonitrile] | < 10 nM
CCN(CC(F)F)c1cc(Oc2cc(C#N)ccc2-c2ncc(CCN)cn2)n(C)n1 [Compound No. 875, 4-[5-(2-Aminoethyl)pyrimidin-2-yl]-3-[5-[2,2-difluoroethyl(ethyl)amino]-2-methylpyrazol-3-yl]oxybenzonitrile] | < 10 nM
Cn1nc(-c2cnccn2)cc1Oc1cc(C#N)ccc1-c1ncc(CN)cn1 [Compound No. 931, 4-[5-(Aminomethyl)pyrimidin-2-yl]-3-(2-methyl-5-pyrazin-2-ylpyrazol-3-yl)oxybenzonitrile] | 10 to 1000 nM
Cc1nn(CC(C)C)cc1Oc1cc(F)ccc1-c1ncc(CCN)cn1 [Compound No. 966, 2-[2-[4-Fluoro-2-[3-methyl-1-(2-methylpropyl)pyrazol-4-yl]oxyphenyl]pyrimidin-5-yl]ethanamine] | < 10 nM
Cc1c(Oc2cc(F)ccc2-c2ncc(CCN)cn2)cnn1CC(C)C [Compound No. 967, 2-[2-[4-fluoro-2-[5-methyl-1-(2-methylpropyl)pyrazol-4-yl]oxyphenyl]pyrimidin-5-yl]ethanamine] | 10 to 1000 nM
Cn1nc(N2CCOCC2)cc1C(=O)c1cc(C#N)ccc1-c1ncc(CN)cn1 [Compound No. 1028, 4-[5-(Aminomethyl)pyrimidin-2-yl]-3-(2-methyl-5-morpholin-4-ylpyrazole-3-carbonyl)benzonitrile] | < 10 nM
Cn1nc(C(C)(C)C)cc1C(=O)c1cc(C#N)ccc1-c1ncc(CN)cn1 [Compound No. 1030, 4-[5-(Aminomethyl)pyrimidin-2-yl]-3-(5-tert-butyl-2-methylpyrazole-3-carbonyl)benzonitrile] | < 10 nM
Cc1cc(C(=O)c2cc(C#N)ccc2-c2ncc(CCN)cn2)cc(N2CCOCC2)n1 [Compound No. 1042, 4-[5-(2-Aminoethyl)pyrimidin-2-yl]-3-(2-methyl-6-morpholin-4-ylpyridine-4-carbonyl)benzonitrile] | < 10 nM
Cc1nc(N2CCOCC2)sc1C(=O)c1cc(C#N)ccc1-c1ncc(CN)cn1 [Compound No. 1064, 4-[5-(Aminomethyl)pyrimidin-2-yl]-3-(4-methyl-2-morpholin-4-yl-1,3-thiazole-5-carbonyl)benzonitrile] | 10 to 1000 nM
N#Cc1ccc(-c2ccc(CCN)cn2)c(Cn2cnc(-c3ccccc3)c2)c1 [Compound No. 1131, 4-[5-(2-Aminoethyl)pyridin-2-yl]-3-[(4-phenylimidazol-1-yl)methyl]benzonitrile] | < 10 nM
Cc1nc(CN2CCCCC2)cn1Cc1cc(C#N)ccc1-c1ncc(CCN)cn1 [Compound No. 1179, 4-[5-(2-Aminoethyl)pyrimidin-2-yl]-3-[[2-methyl-4-(piperidin-1-ylmethyl)imidazol-1-yl]methyl]benzonitrile] | > 1000 nM
N#Cc1ccc(-c2ncc(CCN)cn2)c(Cn2cc(C3CC3)nn2)c1 [Compound No. 1187, 4-[5-(2-Aminoethyl)pyrimidin-2-yl]-3-[(4-cyclopropyltriazol-1-yl)methyl]benzonitrile] | < 10 nM
CC(C)Cn1cc(Cc2cc(C#N)ccc2-c2ncc(CCN)cn2)cn1 [Compound No. 1195, 4-[5-(2-Aminoethyl)pyrimidin-2-yl]-3-[[1-(2-methylpropyl)pyrazol-4-yl]methyl]benzonitrile] | < 10 nM
N#Cc1ccc(-c2ncc(CCN)cn2)c(Cn2cc(N3CCCC3)cn2)c1 [Compound No. 1198, 4-[5-(2-Aminoethyl)pyrimidin-2-yl]-3-[(4-pyrrolidin-1-ylpyrazol-1-yl)methyl]benzonitrile] | 10 to 1000 nM
Cc1nc(C(C)c2cc(C#N)ccc2-c2ccc(CCN)cc2)cc(N2CCOCC2)n1 (stereo not shown) [Compound No. 1226, 4-[4-(2-Aminoethyl)phenyl]-3-[1-(2-methyl-6-morpholin-4-ylpyrimidin-4-yl)ethyl]benzonitrile] | 10 to 1000 nM
Cc1nc(N2CCOCC2)cc(C2(c3cc(C#N)ccc3-c3ccc(CCN)cc3)CC2)n1 [Compound No. 1227, 4-[4-(2-Aminoethyl)phenyl]-3-[1-(2-methyl-6-morpholin-4-ylpyrimidin-4-yl)cyclopropyl]benzonitrile] | 10 to 1000 nM
COC(c1cc(-c2nccs2)no1)c1cc(C#N)ccc1-c1ccc(CCN)cc1 (stereo not shown) [Compound No. 1232, 4-[4-(2-Aminoethyl)phenyl]-3-[methoxy-[3-(1,3-thiazol-2-yl)-1,2-oxazol-5-yl]methyl]benzonitrile] | > 1000 nM
Cn1nc(C(C)(C)C)cc1C(OCC#N)c1cc(C#N)ccc1-c1ncc(CCN)cn1 (stereo not shown) [Compound No. 1237, 4-[5-(2-Aminoethyl)pyrimidin-2-yl]-3-[(5-tert-butyl-2-methylpyrazol-3-yl)-(cyanomethoxy)methyl]benzonitrile] | < 10 nM
N#Cc1ccc(-c2ccc(CCN)cc2)c(Sc2cnnc(N3CCCCC3)c2)c1 [Compound No. 1240, 4-[4-(2-Aminoethyl)phenyl]-3-(6-piperidin-1-ylpyridazin-4-yl)sulfanylbenzonitrile] | < 10 nM
N#Cc1ccc(-n2cc(CCN)cn2)c(Sc2cnnc(N3CCCCC3)c2)c1 [Compound No. 1246, 4-[4-(2-Aminoethyl)pyrazol-1-yl]-3-(6-piperidin-1-ylpyridazin-4-yl)sulfanylbenzonitrile] | 10 to 1000 nM
N#Cc1ccc(-c2ncc(CCN)cn2)c([S+]([O-])c2cnnc(N3CCCCC3)c2)c1 (stereo not shown) [Compound No. 1276, 4-[5-(2-Aminoethyl)pyrimidin-2-yl]-3-(6-piperidin-1-ylpyridazin-4-yl)sulfinylbenzonitrile] | > 1000 nM
Cn1nc(-c2ccccc2)cc1Oc1cc(C#N)ncc1-c1ccc(CCN)cn1 [Compound No. 1277, 5-[5-(2-Aminoethyl)pyridin-2-yl]-4-(2-methyl-5-phenylpyrazol-3-yl)oxypyridine-2-carbonitrile] | 10 to 1000 nM
Cn1nc(-c2ccccc2)cc1Oc1nc(C#N)ccc1-c1ccc(CCN)cn1 [Compound No. 1279, 5-[5-(2-Aminoethyl)pyridin-2-yl]-6-(2-methyl-5-phenylpyrazol-3-yl)oxypyridine-2-carbonitrile] | < 10 nM
Cn1nc(-c2ccccn2)cc1Oc1cc(C#N)cnc1-c1ccc(CN)cn1 [Compound No. 1289, 6-[5-(Aminomethyl)pyridin-2-yl]-5-(2-methyl-5-pyridin-2-ylpyrazol-3-yl)oxypyridine-3-carbonitrile] | > 1000 nM
Cc1nc(Oc2cc(C#N)ccc2-c2ncc(CCN)cn2)cc(N2CC(F)(F)C2)n1 [compound 296, 4-[5-(2-aminoethyl)pyrimidin-2-yl]-3-[6-(3,3-difluoroazetidin-1-yl)-2-methylpyrimidin-4-yl]oxybenzonitrile] | < 10 nM
CC(C)(N)Cc1ccc(-c2ccc(C#N)cc2Oc2cnnc(N3CCOCC3)c2)cc1 [compound 297, 4-[4-(2-amino-2-methylpropyl)phenyl]-3-(6-morpholin-4-ylpyridazin-4-yl)oxybenzonitrile] | 10 to 1000 nM

— patent publication US20230167073A1 (Teijin Pharma Limited, priority 2020, published 2023)
